Laboratory results published in ChEMBL document CHEMBL3091325, “New aminopyrimidine derivatives as inhibitors of the TAM family” (Eur J Med Chem, 2013).
Activity calls are given as the source filed them. No cut-off for these calls is given here.

These compounds were tested against T1, Tyrosine-protein kinase receptor TYRO3 (Homo sapiens) (UniProt Q06418) (assay: Inhibition of recombinant human Tyro3 kinase domain using poly (Glu, Ala, Tyr) as substrate up to 50 uM after 1.5 hrs by ELISA).
T1 sequence (whole entry): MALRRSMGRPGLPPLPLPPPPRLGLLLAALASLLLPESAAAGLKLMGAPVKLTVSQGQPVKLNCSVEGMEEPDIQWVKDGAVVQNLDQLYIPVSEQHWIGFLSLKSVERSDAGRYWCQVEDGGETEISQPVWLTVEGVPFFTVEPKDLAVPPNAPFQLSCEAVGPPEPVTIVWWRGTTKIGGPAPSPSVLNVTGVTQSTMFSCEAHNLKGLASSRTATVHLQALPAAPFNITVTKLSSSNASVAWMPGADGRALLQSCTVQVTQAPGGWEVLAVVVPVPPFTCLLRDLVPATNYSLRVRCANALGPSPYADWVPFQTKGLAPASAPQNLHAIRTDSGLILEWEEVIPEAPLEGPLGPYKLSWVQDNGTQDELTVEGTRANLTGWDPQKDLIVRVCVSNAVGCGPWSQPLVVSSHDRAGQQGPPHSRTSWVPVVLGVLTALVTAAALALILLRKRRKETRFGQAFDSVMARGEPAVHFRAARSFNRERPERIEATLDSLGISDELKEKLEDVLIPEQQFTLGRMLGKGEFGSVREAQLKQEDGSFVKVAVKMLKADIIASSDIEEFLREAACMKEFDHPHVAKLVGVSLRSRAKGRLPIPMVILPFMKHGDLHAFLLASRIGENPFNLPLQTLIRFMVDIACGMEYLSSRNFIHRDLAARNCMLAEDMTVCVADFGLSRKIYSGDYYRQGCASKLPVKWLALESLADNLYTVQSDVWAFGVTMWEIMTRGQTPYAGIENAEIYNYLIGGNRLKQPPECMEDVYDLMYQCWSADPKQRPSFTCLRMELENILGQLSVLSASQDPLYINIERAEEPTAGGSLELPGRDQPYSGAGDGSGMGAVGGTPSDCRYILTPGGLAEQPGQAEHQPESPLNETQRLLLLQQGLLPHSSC

inhibition	SMILES
inactive	CNc1nccc(Oc2ccc(NC(=O)c3cccn(-c4ccc(F)cc4)c3=O)cc2F)n1
inactive	O=C(Nc1ccc(Oc2cc(On3nnc4ccccc43)ncn2)c(F)c1)c1cccn(-c2ccc(F)cc2)c1=O
inactive	O=C(Nc1ccc(Oc2cc(On3nnc4ccccc43)ncn2)c(F)c1)c1cccn(-c2ccc(F)c(F)c2)c1=O
inactive	COc1ccc(CNc2nccc(Oc3ccc(NC(=O)c4cccn(-c5ccc(F)cc5)c4=O)cc3F)n2)cc1
inactive	Nc1cc(Oc2ccc(NC(=O)c3cccn(-c4ccc(F)c(F)c4)c3=O)cc2F)ncn1
inactive	COc1ccc(-n2cccc(C(=O)Nc3ccc(Oc4cc(On5nnc6ccccc65)ncn4)c(F)c3)c2=O)c(F)c1
inactive	COc1ccc(-n2cccc(C(=O)Nc3ccc(Oc4cc(N)ncn4)c(F)c3)c2=O)c(F)c1

The next lines start with the compound.

SMILES	inhibition
CNc1cc(Oc2ccc(NC(=O)c3cccn(-c4ccc(F)cc4)c3=O)cc2F)ncn1	inactive
COc1ccc(CNc2cc(Oc3ccc(NC(=O)c4cccn(-c5ccc(F)cc5)c4=O)cc3F)ncn2)cc1	inactive
O=C(Nc1ccc(Oc2cc(On3nnc4ccccc43)ncn2)c(F)c1)c1cccn(-c2ccc(F)cc2F)c1=O	inactive
Cc1cc(F)ccc1-n1cccc(C(=O)Nc2ccc(Oc3cc(On4nnc5ccccc54)ncn3)c(F)c2)c1=O	inactive
O=C(Nc1ccc(Oc2cc(Cl)ncn2)c(F)c1)c1cccn(-c2ccc(F)cc2)c1=O	inactive
